“Also recorded” adds a separate entry of the source. * marks the point of attachment. Palmitoyl = CCCCCCCCCCCCCCCC(=O)*
B1: TRPV1 (endogenous, mouse DRG) (receptor, UniProt Q704Y3 1-839, looked up)
chain: MEKWASLDSDESEPPAQENSCPDPPDRDPNSKPPPAKPHIFATRSRTRLFGKGDSEEASPMDCPYEEGGLASCPIITVSSVVTLQRSVDGPTCLRQTSQDSVSTGVETPPRLYDRRSIFDAVAQSNCQELESLLSFLQKSKKRLTDSEFKDPETGKTCLLKAMLNLHNGQNDTIALLLDIARKTDSLKQFVNASYTDSYYKGQTALHIAIERRNMALVTLLVENGADVQAAANGDFFKKTKGRPGFYFGELPLSLAACTNQLAIVKFLLQNSWQPADISARDSVGNTVLHALVEVADNTADNTKFVTNMYNEILILGAKLHPTLKLEELTNKKGLTPLALAASSGKIGVLAYILQREIHEPECRHLSRKFTEWAYGPVHSSLYDLSCIDTCEKNSVLEVIAYSSSETPNRHDMLLVEPLNRLLQDKWDRFVKRIFYFNFFVYCLYMIIFTTAAYYRPVEGLPPYKLNNTVGDYFRVTGEILSVSGGVYFFFRGIQYFLQRRPSLKSLFVDSYSEILFFVQSLFMLVSVVLYFSHRKEYVASMVFSLAMGWTNMLYYTRGFQQMGIYAVMIEKMILRDLCRFMFVYLVFLFGFSTAVVTLIEDGKNNSLPVESPPHKCRGSACRPGNSYNSLYSTCLELFKFTIGMGDLEFTENYDFKAVFIILLLAYVILTYILLLNMLIALMGETVNKIAQESKNIWKLQRAITILDTEKSFLKCMRKAFRSGKLLQVGFTPDGKDDFRWCFRVDEVNWTTWNTNVGIINEDPGNCEGVKRTLSFSLRSGRVSGRNWKNFALVPLLRDASTRDRHSTQPEEVQLKHYTGSLKPEDAEVFKDSMAPGEK
notes: whole, on cells
B2: Tmem100 (wild-type, full-length, mouse) (other)
chain: MTEESTKENLGAPKSPTPVTMEKNPKREVVVTTGPLVSEVQLMAATGGAELSCYRCIIPFAVVVFITGIVVTAVAYSFNSHGSIISIFGLVLLSSGLFLLASSALCWKVRQRNKKVKRRESQTALVVNQRCLFA
notes: also called Pirt2; T100

What was measured:
TRPV1-CFP [1] = test: FRET with TIRF microscopy, COS-7 cells, Tmem100-3Q co-expressed
TRPV1-CFP [2] = test: FRET with TIRF microscopy, COS-7 cells, wild-type Tmem100 co-expressed
[3] = tested on: paclitaxel (Taxol)-induced mechanical hyperalgesia in wild-type mice; test: Paclitaxel-induced mechanical hyperalgesia; format: in vivo, mouse; conditions: F2 5 μl 100 μM intradermal injection
Method: Mice were placed in a transparent plastic box (4.5×5×10 cm) on a metal mesh and acclimatized for 30 minutes prior to testing. Each mouse was tested more than 5 times at a specific force manually, and the threshold was determined by the lowest force needed to elicit responses more than 50% of the time.
Mice were injected with paclitaxel (Sigma T7191) intraperitoneally at the dose of 6 mg/kg, as previously described (Materazzi et al., 2012). Seven days after paclitaxel injection, the mice were assayed with Von Frey methods for mechanical hyperalgesia, both before and four hours after injection of cell permeable peptides.

[4] = tested on: SNL-induced mechanical hyperalgesia in wild-type mice; test: Spinal nerve ligation (SNL) in wild-type mice, mechanical hyperalgesia; format: in vivo, mouse; conditions: day 6 post ligation, 4 hrs post CPP; 5 μl of 2 mM intradermal in hindpaws
Method: In the wild-type mice with spinal nerve ligation (SNL), mechanical hyperalgesia is observed 6 days post ligation. Palmitoylated (Pal) CPP tailored to the C-terminus of human Tmem100-3Q alleviates neuropathic pain/mechanical allodynia in SNL. n=6, *p<0.05 at Day 6 4 hrs post CPP treatment. Scrambled: open bar; human P2-Mut (T100-Mut): black bar (FIG. 17). Peptides (5 μl of 2 mM) were injected intradermally in the hindpaws. Sequences for CPP used in the SNL experiment:
Human P2-Mut (T100-Mut) Pal-[…]-OH (SEQ ID NO: 7); Scrambled Pal-[…]-OH (SEQ ID NO: 19). Pal-palmitoylated in the N termini for each CPP.

TRPA1 = tested on: T1, TRPA1; test: Calcium imaging of HEK293T cells expressing TRPA1 and TRPV1 (MO or CA); format: cell-based; conditions: shortened CPP 2 μM; CA 10 μM; HEK293 TRPA1+TRPV1; vs scrambled
T1 construct: percentage of cells responsive to CA; other: shortened CPP 2 μM; CA 10 μM; HEK293 TRPA1+TRPV1; vs scrambled; percentage of cells responsive to MO; other: peptide 200 nM pre-treatment; 500 nM MO; HEK293T TRPA1+TRPV1; percentage of cells that respond to 100 nM MO and 10 μM CA; other: HEK293T TRPA1+TRPV1, Tmem100-3Q-transfected vs lacki; reduction in the percentage of cells responding to MO

[5] = tested on: neuropathic mechanical hypersensitivity in SNL rats; format: in vivo, rat; conditions: intrathecal 10 μl
Text: An modified L5 SNL model was produced as described in previously (He et al., 2014; Shechter et al., 2013). Male Sprague-Dawley rats (200-350 g, Harlan, Indianapolis, Ind.) were anesthetized with 2% isoflurane. The left L5 spinal nerve was ligated with a 6-0 silk suture and cut distally. The muscle layer was closed with 4-0 chromic gut suture and the skin closed with metal clips. For intrathecal catheter implantation, a small slit was cut in the atlanto-occipital membrane of rats, into which a saline-filled piece of PE-10 tubing (6-7 cm) was inserted (He et al., 2014). […] Hypersensitivity to punctuate mechanical stimulation was determined with the up-down method by using a series of von Frey filaments (0.38-15.1 g) applied for 4-6 seconds to the test area on the plantar surface of the hindpaw (Chaplan et al., 1994; He et al., 2014). The PWT was determined according to the formula provided by Dixon (Dixon, 1980). […] HC-030031 was purchased from Tocris Bioscience (Bristol, UK). Both drugs were dissolved in 10% dimethylsulfoxide (DMSO), 5% Tween 80 and 85% sterile saline solution. The final working solution which was injected by intrathecal route contained <1% DMSO. The number of animals used in each study was based on experience with similar studies and power analysis calculations. Animals were randomized to the different treatment groups and blinded the experimenter to drug treatment to reduce selection and observation bias. After the experiments were completed, no data point was excluded. STATISTICA 6.0 software (StatSoft, Inc., Tulsa, Okla.) was used to conduct all statistical analyses. The Tukey honestly significant difference (HSD) post-hoc test was used to compare specific data points. Bonferroni correction was applied for multiple comparisons. Two-tailed tests were performed, and data are expressed as mean±SEM; P<0.05 was considered significant in all tests.
The sequence from the last 28 amino acids of the C-terminus of the Tmem100-3Q mutant protein was synthesized and myristoylated at its N-terminus (myr-[…]-COOH) (SEQ ID NO: 8) by Twentyfirst Century Biochemicals. […] For the calcium imaging assay, the peptides were added to the calcium imaging buffer with a final concentration of 200 nM and incubated for at least […] at room temperature. For the mice behavioral assays, the peptides (5 μL, 2 mM) were injected subcutaneously in the hindpaw at least 30 minutes before testing. For the rat behavior assays, human T100-3Q (h-T100), a palmitoylated cell permeable peptide mutated based on the C terminus of human sequence in Tmem100, was applied. The sequence is Palmitoyl-[…]-COOH (SEQ ID NO: 7).

[6] = tested on: ongoing neuropathic pain in SNL rats; test: Conditioned place preference test for ongoing pain in SNL rats; format: in vivo, rat; conditions: intrathecal 50 μM, 10 μl; for conditioned place preference: time in drug-paired chamber, SNL rats: scramble peptide-paired chamber as comparison
Text: Ongoing, or spontaneous, pain, which is most bothersome to patients, is difficult to treat and difficult to study in animals. The conditioned place preference test has been successfully developed to reveal the presence of non-evoked, ongoing pain and pain relief based on the preference of an animal for the context paired with a pain-relief treatment. The conditioned place preference can also capture the aversive aspects of pain. Strikingly, many studies have shown that the rodent conditioned place preference test accurately reflects the effectiveness of human clinical treatments. Therefore, this test is a powerful approach to investigate the potential effectiveness of new treatments and mechanisms for relief of ongoing pain. Two previous studies have examined the role of TRPA1 in ongoing pain by the conditioned place preference test. […] Because the antagonists used in those studies (HC030031 and Chem5861528) target TRPA1 monomers, it is possible that T100-Mut can inhibit ongoing pain by modulating the TRPA1/V1 complex. This possibility was tested in rodents with SNL-induced ongoing pain using the conditioned place preference test. […] Systemic administration of gabapentin, an analgesic that is known to alleviate neuropathic pain, was used as a positive control (FIG. 16B).

[7] = biological target: T2, TRPA1 (endogenous, mouse DRG) (mouse, UniProt Q8BLA8 1-1125); test: co-IP with Tmem100 and TRPV1 antibodies, Western blot, mouse DRG lysates
T2 construct: whole, on cells
T2 sequence (Q8BLA8 whole entry): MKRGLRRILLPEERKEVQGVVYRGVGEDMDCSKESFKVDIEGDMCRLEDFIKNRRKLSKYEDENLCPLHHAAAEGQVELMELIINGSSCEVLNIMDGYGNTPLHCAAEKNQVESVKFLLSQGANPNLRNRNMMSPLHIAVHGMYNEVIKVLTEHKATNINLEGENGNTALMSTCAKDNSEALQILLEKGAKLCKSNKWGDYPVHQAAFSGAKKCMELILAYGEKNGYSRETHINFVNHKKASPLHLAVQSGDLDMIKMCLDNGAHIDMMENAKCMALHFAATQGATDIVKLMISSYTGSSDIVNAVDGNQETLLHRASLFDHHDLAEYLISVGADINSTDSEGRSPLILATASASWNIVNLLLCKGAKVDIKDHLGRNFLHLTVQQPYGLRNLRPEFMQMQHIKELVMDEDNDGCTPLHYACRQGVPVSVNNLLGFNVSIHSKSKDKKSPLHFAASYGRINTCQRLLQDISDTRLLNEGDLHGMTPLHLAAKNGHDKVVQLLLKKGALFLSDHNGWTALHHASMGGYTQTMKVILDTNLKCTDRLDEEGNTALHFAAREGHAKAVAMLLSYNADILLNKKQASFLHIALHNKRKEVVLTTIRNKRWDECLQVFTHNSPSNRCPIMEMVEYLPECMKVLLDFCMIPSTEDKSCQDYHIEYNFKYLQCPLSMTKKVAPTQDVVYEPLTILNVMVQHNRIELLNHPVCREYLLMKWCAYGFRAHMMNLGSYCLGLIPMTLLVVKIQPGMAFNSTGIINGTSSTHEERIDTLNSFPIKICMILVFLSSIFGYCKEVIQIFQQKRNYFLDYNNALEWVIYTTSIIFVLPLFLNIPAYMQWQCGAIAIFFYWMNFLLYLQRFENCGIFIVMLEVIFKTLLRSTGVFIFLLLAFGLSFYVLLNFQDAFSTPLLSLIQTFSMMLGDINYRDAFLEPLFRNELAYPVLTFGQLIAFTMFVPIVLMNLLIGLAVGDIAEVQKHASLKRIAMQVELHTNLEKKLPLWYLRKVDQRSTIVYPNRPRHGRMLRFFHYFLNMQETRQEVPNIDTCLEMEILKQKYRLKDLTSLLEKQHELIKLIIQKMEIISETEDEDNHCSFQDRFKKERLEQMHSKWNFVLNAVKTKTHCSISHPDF
Text: (§1) All groups were transfected with TRPV1-CFP and TRPA1-YFP except for the Rho-pYC (as a positive control for maximal effects of the system) and M-V1 (negative control) groups, where Rho-pYC and membrane-tethered YFP+TRPV1-CFP, respectively, were transfected instead. FRET efficiencies were highest in Tmem100-3Q-transfected cells (A1-V1-3Q), followed by the empty vector-transfected groups (A1-V1), and were lowest in cells transfected with wild-type Tmem100 (A1-V1-WT). The statistic is one-way ANOVA (*$p<0.05$; $p<0.01$, *$p<0.001$). Data are presented as mean±SEM. FIG. 5F is a table showing a summary of the data from FIG. 5E.
(§2) DRG from all levels or CHO cells transfected with Trpv1, Trpa1, and Tmem100-myc were used. Whole cell DRG or CHO cells lysates were generated 24 h after transfection, and Co-IP with either 1 µg myc antibody (EMD Millipore) or 1 µg TRPV1 antibody (Santa Cruz, R130) as described (Akopian et al., 2007) Immunoprecipitants and cell lysate aliquots were resolved by SDS-PAGE and immunoblotted with 1:1000 anti-TRPV1 antibody (Santa Cruz, R130), 1:500 anti-Tmem100 antibody, 1:1000 anti-TRPA1 (Novus), or 1:1000 anti-myc (EMD Millipore). Secondary antibodies for visualization included donkey anti-rabbit and anti-mouse HRP-conjugated antibodies (GE Biosciences). […]

[8] = biological target: T2, TRPA1 (endogenous, mouse DRG); test: co-immunoprecipitation from mouse DRG lysates
Text: as §1, §2

[9] = biological target: B1; test: co-immunoprecipitation from mouse DRG lysates
Text: as §1, §2

Work on TRPA1-YFP (receptor) yielded an increase of the TRPA1-TRPV1 interaction (FRET efficiency) against cells expressing only TRPA1-V1 (TRPV1-CFP [1]) of 43% and a decrease of FRET efficiency against cells expressing only TRPA1-V1 (TRPV1-CFP [2]) of 34%.

“F2: shortened CPP consisting of the first 18 amino acids of the T100-Mut (SEQ ID NO: 17) (WKVRQRNKKVQQQESQTA; listed as Mus musculus)” was tested, and the paclitaxel-induced mechanical hyperalgesia [3] was “effective”, the “SNL-induced mechanical hyperalgesia / allodynia in mice” value [4] was “blocked” and the “percentage of cells responsive to CA” value (TRPA1) was “significantly reduced; also recorded: same inhibitory effects”.

For “Palmitoyl-WKVRQRSKKAQQQESQTALVANQRSLFA-COOH (Palmitoyl-WKVRQRSKKAQQQESQTALVANQRSLFA-OH; SMILES CCCCCCCCCCCCCCCC(=O)N[C@@H](Cc1c[nH]c2ccccc12)C(=O)N[C@@H](CCCCN)C(=O)N[C@H](C(=O)N[C@@H](CCCNC(=N)N)C(=O)N[C@@H](CCC(N)=O)C(=O)N[C@@H](CCCNC(=N)N)C(=O)N[C@@H](CO)C(=O)N[C@@H](CCCCN)C(=O)N[C@@H](CCCCN)C(=O)N[C@@H](C)C(=O)N[C@@H](CCC(N)=O)C(=O)N[C@@H](CCC(N)=O)C(=O)N[C@@H](CCC(N)=O)C(=O)N[C@@H](CCC(=O)O)C(=O)N[C@@H](CO)C(=O)N[C@@H](CCC(N)=O)C(=O)N[C@H](C(=O)N[C@@H](C)C(=O)N[C@@H](CC(C)C)C(=O)N[C@H](C(=O)N[C@@H](C)C(=O)N[C@@H](CC(N)=O)C(=O)N[C@@H](CCC(N)=O)C(=O)N[C@@H](CCCNC(=N)N)C(=O)N[C@@H](CO)C(=O)N[C@@H](CC(C)C)C(=O)N[C@@H](Cc1ccccc1)C(=O)N[C@@H](C)C(=O)O)C(C)C)[C@@H](C)O)C(C)C; listed as Homo sapiens) [h-T100]”, the “contralateral PWT after drug injection” value [5] was “no significant change”, the “ipsilateral paw withdrawal threshold (PWT) vs pre-drug” value ([5]; h-T100 10-100 μM, HC-030031 10-200 μM, scrambled 100 μM) was “dose-dependently increased” and the “conditioned place preference: time in drug-paired chamber, SNL rats” value ([6]; listed as P2-Mut) was “increased”. For the same molecule, the “conditioned place preference: time in drug-paired chamber, SNL rats” value ([6]; listed as human T100-Mut) was “induced robust the conditioned place preference”, the “chamber preference in sham-operated rats” value ([6]; sham-operated) was “did not induce chamber preference” and the “SNL-induced mechanical hyperalgesia / allodynia in mice” value [4] was “alleviates”.

B1: binds [7].

B2: binds [8]; binds [9].

— US11066455B2, “Tmem100 peptides and variants thereof and their use in treating or preventing diseases or conditions” (The Johns Hopkins University, priority 2014, dated 2021)
